Experimental data as given in ChEMBL document CHEMBL1148617, “Design, synthesis, and structure-activity relationships of 1-,3-,8-, and 9-substituted-9-deazaxanthines at the human A2B adenosine receptor” (J Med Chem, 2006).

Assays:
[1] = biological target: T1, Adenosine receptor A2b (Homo sapiens) (UniProt P29275); assay: Displacement of [3H]DPCPX from recombinant human adenosine A2B receptor expressed in HEK293 cells at 0.1 uM; type: cell-based
T1 sequence (whole entry): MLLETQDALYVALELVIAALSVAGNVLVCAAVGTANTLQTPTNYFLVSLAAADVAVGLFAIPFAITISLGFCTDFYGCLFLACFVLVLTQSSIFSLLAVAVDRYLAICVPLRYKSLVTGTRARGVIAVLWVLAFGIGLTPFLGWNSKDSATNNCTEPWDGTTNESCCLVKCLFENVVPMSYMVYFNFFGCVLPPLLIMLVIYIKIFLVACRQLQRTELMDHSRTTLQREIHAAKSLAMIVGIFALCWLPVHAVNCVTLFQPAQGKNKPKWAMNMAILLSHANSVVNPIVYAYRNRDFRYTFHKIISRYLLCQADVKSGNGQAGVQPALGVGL

[2] = biological target: Adenosine receptor A2a (Homo sapiens, UniProt P29274); assay: Displacement of [3H]ZM-241385 from recombinant human adenosine A2A receptor expressed in HeLa cells at 0.1 uM
Adenosine receptor A2a, sequence (P29274 whole entry): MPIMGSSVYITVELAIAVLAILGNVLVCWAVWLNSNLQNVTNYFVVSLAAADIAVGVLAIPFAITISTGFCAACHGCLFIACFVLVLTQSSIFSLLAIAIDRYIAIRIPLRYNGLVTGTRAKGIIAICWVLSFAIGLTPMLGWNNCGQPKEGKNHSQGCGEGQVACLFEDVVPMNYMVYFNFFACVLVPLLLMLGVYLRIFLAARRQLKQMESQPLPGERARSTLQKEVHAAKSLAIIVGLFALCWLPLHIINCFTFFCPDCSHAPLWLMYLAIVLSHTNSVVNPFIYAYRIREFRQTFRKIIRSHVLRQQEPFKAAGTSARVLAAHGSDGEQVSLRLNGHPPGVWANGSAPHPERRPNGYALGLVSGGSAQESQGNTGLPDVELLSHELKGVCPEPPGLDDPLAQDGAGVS

[3] = biological target: T1, Adenosine receptor A2b (Homo sapiens); assay: Displacement of [3H]DPCPX from recombinant human adenosine A2B receptor expressed in HEK293 cells at 0.01 uM

Structure (SMILES)	inhibition [1] [%]	inhibition [2] [%]	inhibition [3] [%]
CC(C)Cn1c(=O)c2[nH]c(-c3ccc(OCC(=O)O)cc3)cc2n(C)c1=O	28	1	
CCCn1c(=O)c2[nH]c(-c3ccc(N(C=O)CC(=O)O)cc3)cc2n(CCC)c1=O	40	9	9
CCCn1c(=O)c2[nH]c(-c3ccc(OC(C)(C)C(=O)O)cc3)cc2n(C)c1=O	50	3	8
Cn1c(=O)c2[nH]c(-c3ccc(OCC(=O)Nc4ccc(F)cc4)cc3)cc2n(CCN2CCOCC2)c1=O	27	10	16
O=C(O)COc1ccc(-c2cc3c([nH]2)c(=O)n(CC(F)(F)F)c(=O)n3CC(F)(F)F)cc1	22	19	16
Cn1c(=O)c2[nH]c(-c3ccc(OCC(=O)NCc4ccncc4)cc3)cc2n(C)c1=O	51	37	5
CCCn1c(=O)c2[nH]c(-c3ccc(OCC(=O)NCc4ccncc4)cc3)cc2n(C)c1=O	49	3	27
O=C(COc1ccc(-c2cc3c([nH]2)c(=O)n(CC2CC2)c(=O)n3CC2CC2)cc1)Nc1ccc(F)cc1	95	98	57
CC(Oc1ccc(-c2cc3c([nH]2)c(=O)n(C)c(=O)n3C)cc1)C(=O)O (stereo not drawn)	34	9	5
CCCn1c(=O)n(C)c(=O)c2[nH]c(-c3ccc(OCC(=O)N(C)Cc4ccccc4)cc3)cc21	32	15	15
O=C(O)COc1ccc(-c2cc3c([nH]2)c(=O)n(CC2CC2)c(=O)n3CC2CC2)cc1	69	40	27
CCCn1c(=O)n(C)c(=O)c2[nH]c(-c3ccc(OCC(=O)Nc4ccc5c(c4)CCC5=O)cc3)cc21	50	26	12
CCCn1c(=O)c2[nH]c(-c3ccc(OCC(=O)Nc4ccc(C)cn4)cc3)cc2n(C)c1=O	73	12	24
COc1cc(NC(=O)COc2ccc(-c3cc4c([nH]3)c(=O)n(C)c(=O)n4C)cc2)nc(OC)n1	50	14	12
COCCCn1c(=O)c2[nH]c(-c3ccc(OCC(=O)O)cc3)cc2n(CCCOC)c1=O	12	9	10
CN(C(=O)COc1ccc(-c2cc3c([nH]2)c(=O)n(C)c(=O)n3C)cc1)c1ccccc1	61	0	15
Cn1c(=O)c2[nH]c(-c3ccc(OCC(=O)N[C@H]4C(O)O[C@H](CO)[C@@H](O)[C@@H]4O)cc3)cc2n(C)c1=O (stereo partly drawn)	33	13	7
Cn1c(=O)c2[nH]c(-c3ccc(OCC(=O)O)cc3)c(Br)c2n(C)c1=O	24	4	
Cn1c(=O)c2[nH]c(-c3ccc(OCC(=O)O)cc3)cc2n(CCN2CCOCC2)c1=O	18	11	
CCCn1c(=O)c2nc(-c3ccc(OCC(N)=O)cc3)[nH]c2n(CCC)c1=O	56	10	11
Cn1c(=O)c2[nH]c(-c3ccc(OCC(=O)Nc4cnccn4)cc3)cc2n(C)c1=O	44	20	11
CCCn1c(=O)c2[nH]c(-c3ccc(OC(C)(C)C(=O)O)cc3)cc2n(CCC)c1=O	26	6	12
O=C(COc1ccc(-c2cc3c([nH]2)c(=O)n(CC(F)(F)F)c(=O)n3CC(F)(F)F)cc1)Nc1ccccc1	57	4	15
COCCCn1c(=O)c2[nH]c(-c3ccc(OCC(=O)Nc4ccc(Br)cc4)cc3)cc2n(CCCOC)c1=O	85	30	45
CCCn1c(=O)c2[nH]c(-c3ccc(OCC(=O)Nc4ncccc4C)cc3)cc2n(C)c1=O	68	26	25
Cn1c(=O)c2[nH]c(-c3ccc(OC(C)(C)C(=O)O)cc3)cc2n(C)c1=O	14	2	3
CCCn1c(=O)c2[nH]c(-c3ccc(OCC(=O)Nc4ncccc4O)cc3)cc2n(C)c1=O	71	22	31
CCCn1c(=O)c2[nH]c(-c3ccc(N(C=O)CC(=O)Nc4ccc(F)cc4)cc3)cc2n(CCC)c1=O	93	89	24
O=C(COc1ccc(-c2cc3c([nH]2)c(=O)n(CC(F)(F)F)c(=O)n3CC(F)(F)F)cc1)Nc1ccc(Br)cc1	79	11	29
Cn1c(=O)c2[nH]c(-c3cccc(OCC(=O)O)c3)cc2n(C)c1=O	23	15	

Continued, values first:

inhibition [1] [%]	inhibition [2] [%]	inhibition [3] [%]	Structure (SMILES)
65	28	1	COCCCn1c(=O)c2[nH]c(-c3ccc(OCC(=O)Nc4ccccc4)cc3)cc2n(CCCOC)c1=O
47	5	10	CCCn1c(=O)c2[nH]c(-c3ccc(OC(C(=O)O)c4ccccc4)cc3)cc2n(CCC)c1=O (stereo not drawn)
53	27	12	CCCn1c(=O)c2[nH]c(-c3ccc(OCC(=O)Nc4cc(C)cc(C)n4)cc3)cc2n(CCC)c1=O
88	80	23	CCCn1c(=O)c2[nH]c(-c3ccc(OCC(=O)Nc4ccc(F)cc4O)cc3)cc2n(CCC)c1=O
17	35	3	CCCn1c(=O)c2[nH]c(-c3ccc(OCC(=O)Nc4ccccc4)cc3OC)cc2n(CCC)c1=O
87	54	49	CCCn1c(=O)c2[nH]c(-c3ccc(OC(C)(C)C(=O)Nc4ccc(Br)cc4)cc3)cc2n(CCC)c1=O
77	53	30	CCCn1c(=O)c2[nH]c(-c3ccc(OCC(=O)NC(CO)c4ccccc4)cc3)cc2n(CCC)c1=O (stereo not drawn)
55	21	9	CCCn1c(=O)c2[nH]c(-c3ccc(OCC(=O)OCC)cc3)cc2n(CCC)c1=O
85	19	14	CCCn1c(=O)c2[nH]c(-c3ccc(OCC(=O)Nc4ccc(C(F)(F)F)cc4)cc3)cc2n(CCC)c1=O
70	18	14	CCCn1c(=O)c2[nH]c(-c3ccc(OCC(=O)N[C@H](C)[C@H](O)c4ccccc4)cc3)cc2n(CCC)c1=O
57	2	15	CC(C)Cn1c(=O)c2[nH]c(-c3ccc(OCC(=O)Nc4ccccc4)cc3)cc2n(C)c1=O
64	39	18	CCCn1c(=O)c2[nH]c(-c3ccc(OCC(=O)Nc4ccc(Br)cc4)cc3OC)cc2n(CCC)c1=O
68	34	10	CCCn1c(=O)c2[nH]c(-c3ccc(OCC(=O)Nc4cnccn4)cc3)cc2n(CCC)c1=O
89	73	29	CCCn1c(=O)c2[nH]c(-c3ccc(OCC(=O)Nc4cc(F)ccc4O)cc3)cc2n(CCC)c1=O
84	91		CCCn1c(=O)n(C)c(=O)c2[nH]c(-c3ccc(OCC(=O)Nc4ccc(Br)cc4)cc3)cc21
74	75	25	CCCn1c(=O)c2[nH]c(-c3ccc(OCC(=O)NC(CCl)c4ccccc4)cc3)cc2n(CCC)c1=O (stereo not drawn)
45	3	38	CCCn1c(=O)c2[nH]c(-c3ccc(OCC(=O)NC(C(=O)O)c4ccccc4)cc3)cc2n(CCC)c1=O (stereo not drawn)
89	75	44	CCCn1c(=O)c2[nH]c(-c3ccc(OC(C(=O)Nc4ccccc4)c4ccccc4)cc3)cc2n(CCC)c1=O (stereo not drawn)
68	45	20	CCCn1c(=O)c2[nH]c(-c3ccc(OCC(=O)Nc4cccc(C)n4)cc3)cc2n(CCC)c1=O
21	19	10	CCCn1c(=O)n(C)c(=O)c2[nH]c(-c3ccc(OCC(=O)NCc4ccccc4)cc3)cc21
1	10		CCCn1c(=O)c2[nH]c(-c3ccc(OCC(=O)OCC)cc3OC)cc2n(CCC)c1=O
79	31	17	CCCn1c(=O)c2[nH]c(-c3ccc(OCC(=O)Nc4ccc(Br)cc4)cc3Cl)cc2n(CCC)c1=O
58	39	29	CCCn1c(=O)c2[nH]c(-c3ccc(OCC(=O)NC(C(=O)OC)c4ccccc4)cc3)cc2n(CCC)c1=O (stereo not drawn)
83	48	19	CCCn1c(=O)c2[nH]c(-c3ccc(OCC(=O)Nc4cccnc4)cc3)cc2n(CCC)c1=O
8	10		CCCn1c(=O)c2[nH]c(-c3ccc(OCC(=O)O)cc3OC)cc2n(CCC)c1=O
